The results in this text go back to patent US7569695B2, “Dyes for the detection or quantification of desirable target molecules” (Enzo Life Sciences, Inc., priority 2005, dated 2009).

What all share (assay type): biochemical
Assay [1] has as its system 78 bp amplicon of the anti-sense C construct. The assay is described as follows: Amplification on the Light Cycler in the presence of Dye 122 and 109a, 19 cycles (Example 35). The text has this:
A target template was amplified on the Light Cycler (Roche) in the presence of various amounts of SYBR Green and Dye 122 from Example 32. In addition, a byproduct from the silica gel chromatography of Dye 109 in step (g) of Example 14 was also used. This compound is believed to have a single protonation of one of the amines of Dye 109 and as such will be termed Dye 109a. The stock of Dye 122 was OD=200 measured at 488 nm and the stock of Dye 109a was OD=200 measured at 498 nm. The template was a 1:50,000 dilution of the 78 bp amplicon of the anti-sense C construct described previously. • A master-mixture was made up of: • 350 µl of 2×PCR mix described in Example 33 • 14 l of 25 mM MgCl2 • 175.0 l of DEPC treated H2O • 7 l of 10 mg/ml BSA (New England Biolabs, Beverly, Mass.) • 7 l Taq polymease (Perkin Elmer)+7 l of TaqStart (Clontech)
2.0 l of target template+2.0 l of various dye dilutions were added to 16 µl of Master mixture, and then amplified as described previously in Example 33 except that the incubation at 45° C. for 10 minutes was eliminated since ung was not used for this series of amplifications. The amplification was stopped after 19 cycles. The results of this series of amplifications are seen in FIG. 3. […] For Dye 109a, similar features were seen where 1:10 was inhibitory (lane 18) and 1:30 was optimal (lanes 19 and 20).

For assay [2] the test system is unchanged. Kind of assay: Amplification on the Light Cycler with closer series of dye dilutions, 17 cycles (Example 36). The note with it: a fairly broad spectrum of dye dilutions. Here is the method:
A series of dilutions that were closer together was carried out for both Dye 109a and Dye 122. The target template was amplified on the Light Cycler and the template was the 1:50,000 dilution of the 78 bp amplicon of the anti-sense C construct described previously.
A master mixture was made up as described previously in Example 35.
2.0 l of target template (1:50,000 dilution of the antisense C amplicon)+2.0 l of various dye concentrations were added to 16 µl of Master mix and then amplified as described previously in Example 33 and stopping after 17 amplification cycles.

Assay [3] deals with anti-sense C amplicon. The assay is described as follows: Amplification of various amounts of target with fixed dye levels, 29 cycles (Example 37). On the procedure:
In the previous experiments, a fixed amount of target was amplified in the presence of varying level of dyes. The eventual use of these dyes is going to be with a fixed amount of dye and varying levels of targets. As such, an experiment was carried out using previously determined optimal levels of dyes and various amounts of input target (again using the anti-sense C as a model). • Dilution 1=1:100,000 • Dilution 2=1:1,000,000 • Dilution 3=1:10,000,000 • Dilution 4=1:100,000,000 • Dilution 5=1:1,000,000,000 • Dilution 6=1:10,000,000,000
Selected amounts of target template were amplified on the Light Cycler (Roche) in the presence of various amounts of Dye 122, Dye 109a and SYBR Green.
A master mixture was made up of: • 380 l of 2×PCR mix described in Example 33 • 15.2 l of 25 mM MgCl2 • 190.0 l of DEPC treated H2O • 7.6 l of 10 mg/ml BSA (New England Biolabs, Beverly, Mass.) • 7.6 l Taq polymease (Perkin Elmer)+7.6 l of TaqStart (Clontech)
2.0 l of target template (1:50,000 dilution of the antisense C amplicon)+2.0 l of various dye concentrations were added to 16 µl of Master mixture and amplified as described previously in Example 33 stopping after 29 cycles. Dye additions were from the 1:1000 dilution of SYBR Green, 1:30 of Dye 109a and 1:30 of Dye 122.
At the highest input level (Dil 2 1:1,000,000 dilution of amplicon) no evidence of amplification is seen in the sample without dye.

With `CN(C)CCN(C)C1=C/C(=C\c2sc3cc(S(=O)(=O)N4CCCCC4)ccc3[n+]2C)c2ccccc2N1c1ccccc1` [Dye 122], the “amplification (gel analysis, FIG. 3)” value in assay [1] (1:10 dilution of dye stock (OD=200)) is recorded as “inhibitory”; in assay [1] (1:30 dilution of dye stock (OD=200)) it was “the best”; in assay [1] (next dye dilutions (1:100 etc.)), “less amplification”. Besides, the “amplification (gel analysis, FIG. 4)” value in assay [2] is given as “strong enhancement effect”. Further, the “amplification product (gel analysis, FIG. 5)” value is given as “strong prominent band” in assay [3] (Dil 2 (1:1,000,000) target input, 1:30 dilution of dye) and “visible bands” in assay [3] (target inputs diluted 10-100× more than Dil 2, 1:30 dilution of dye).
